Experimental data: patent US5672715A, “Herbicidal substituted 3-aryl-pyrazoles” (Monsanto Company, priority 1995, dated 1997)
“And” between values parts separate entries of the source, which are not always exact repeats. Identical values can stand only once.

Assays:
Type in all cases: in vivo
Giant Foxtail [1] = assay: pre-emergence herbicide test; conditions: 0.25 lb/A; for inhibition at 280.212 g/ha: Setaria faberi, pre-emergence, read-out: % plant inhibition
Experimental: (§1) Topsoil was placed in an aluminum pan and compacted to a depth of 1.3 to 1.6 cm from the top of the pan. On the top of the soil was placed a predetermined number of seeds of each of several monocotyledonous and dicotyledonous annual plant species and/or vegetative propagules of various perennial plant species. The pan was then level filled with a cover layer of topsoil to which was added a known amount of active ingredient either prior to or after application of the cover layer. The active ingredient was dissolved or suspended in an organic solvent, e.g., acetone, or water as carrier for application to the cover layer. The pans were moved to a greenhouse bench where they were thereafter watered from below as needed to give adequate moisture for germination and growth. In some cases, an initial overhead irrigation of 1/4 inch of water was applied immediately after treatment.
(§2) Approximately 14 days after seeding and treating, the pans were observed and the results (% inhibition) were recorded.
(§3) The tables below summarize the results of the pre-emergence herbicidal activity tests of compounds of this invention tested with warm season plants (Tables 2a-2d) and cool season plants (Tables 3a and 3b). The herbicidal rating shown in these tables is the percent inhibition of each plant species. The plant species usually regarded as weeds are identified in the tables by single letter headings and crop species identified by two letter headings both headings being above the columns in accordance with the following legend: […]

Corn [2] = assay: pre-emergence herbicide test; conditions: 0.25 lb/A
Experimental: as §1, §2, §3

Downy Brome [3] = assay: pre-emergence herbicide test; conditions: 0.25 lb/A; for inhibition at 280.212 g/ha: Bromus tectorum, pre-emergence, read-out: % plant inhibition
Experimental: as §1, §2, §3

Birdseye Speedwell [4] = assay: pre-emergence herbicide test; conditions: pre-emergence, 0.25 lb/A; read-out: % plant inhibition
Experimental: as §1, §2, §3

Barnyardgrass [5] = assay: pre-emergence herbicide test; conditions: Echinochloa crus-galli, pre-emergence, 0.25 lb/A; read-out: % plant inhibition
Experimental: as §1, §2, §3

Rape [6] = assay: pre-emergence herbicide test; conditions: 0.25 lb/A; for inhibition at 280.212 g/ha: pre-emergence, read-out: % plant inhibition
Experimental: as §1, §2, §3

Seedling Johnsongrass [7] = assay: pre-emergence herbicide test; conditions: Sorghum halepense, pre-emergence, 0.25 lb/A; read-out: % plant inhibition
Experimental: as §1, §2, §3

Velvetleaf [8] = assay: pre-emergence herbicide test; conditions: 0.25 lb/A; for inhibition at 280.212 g/ha: Abutilon theophrasti, pre-emergence, read-out: % plant inhibition
Experimental: as §1, §2, §3

Blackgrass [9] = assay: pre-emergence herbicide test; conditions: Alopecurus myosuroides, pre-emergence, 0.25 lb/A; read-out: % plant inhibition
Experimental: as §1, §2, §3

Wheat [10] = assay: pre-emergence herbicide test; conditions: 0.25 lb/A
Experimental: as §1, §2, §3

Bedstraw Catchweed [11] = assay: pre-emergence herbicide test; conditions: 0.25 lb/A; for inhibition at 280.212 g/ha: Galium aparine, pre-emergence, read-out: % plant inhibition
Experimental: as §1, §2, §3

Cocklebur [12] = assay: pre-emergence herbicide test; conditions: 0.25 lb/A
Experimental: as §1, §2, §3

Morning Glory [13] = assay: pre-emergence herbicide test; conditions: 0.25 lb/A
Experimental: as §1, §2, §3

Wild Oats [14] = assay: pre-emergence herbicide test; conditions: 0.25 lb/A; for inhibition at 280.212 g/ha: Avena fatua, pre-emergence, read-out: % plant inhibition
Experimental: as §1, §2, §3

Green Foxtail [15] = assay: pre-emergence herbicide test; conditions: Setaria viridis, pre-emergence; 0.25 lb/A; read-out: % plant inhibition
Experimental: as §1, §2, §3

Common Chickweed [16] = assay: pre-emergence herbicide test; conditions: pre-emergence, 0.25 lb/A; read-out: % plant inhibition
Experimental: as §1, §2, §3

Corn [17] = assay: post-emergence herbicide test; conditions: 0.25 lb/A; for inhibition at 280.212 g/ha: Zea mays, post-emergence, read-out: % plant inhibition
Description: (§4) Topsoil was placed in aluminum pans having holes in the bottom and compacted to a depth of 1.3 to 1.6 cm from the top of the pan. A predetermined number of seeds of each of several dicotyledonous and monocotyledonous annual plant species and/or vegetative propagules for the perennial plant species were placed on the soil and pressed into the soil surface. The seeds and/or vegetative propagules were covered with soil and leveled. The pans were then placed on a bench in the greenhouse and watered either from overheard irrigation or by subirrigation as needed. After the plants reach the desired age (two to three weeks), each pan, is removed individually to a spraying chamber and sprayed by means of an atomizer, operating at a spray pressure of 170.3 kPa […] at the application rates noted. In the spray solution was an amount of an emulsifying agent mixture to give a spray solution or suspension which contains about 0.4% by volume of the emulsifier. The spray solution or suspension contained a sufficient amount of the candidate chemical in order to give application rates of the active ingredient corresponding to those shown in Tables 4 and 5, while applying a total amount of solution or suspension equivalent to 1870 L/Ha (200 gallons/acre). […] The post-emergent herbicidal activity shown in these tables is the percent inhibition of each plant species. Testing with warm season and cool season plants is shown in tables 4a-4d and […], respectively.

Birdseye Speedwell [18] = assay: post-emergence herbicide test; conditions: 0.25 lb/A
Description: as §4

Seedling Johnsongrass [19] = assay: post-emergence herbicide test; conditions: 0.25 lb/A; for inhibition at 280.212 g/ha: Sorghum halepense, post-emergence, read-out: % plant inhibition
Description: as §4

Velvetleaf [20] = assay: post-emergence herbicide test; conditions: 0.25 lb/A; for inhibition at 280.212 g/ha: Abutilon theophrasti, post-emergence, read-out: % plant inhibition
Description: as §4

Bedstraw Catchweed [21] = assay: post-emergence herbicide test; conditions: 0.25 lb/A
Description: as §4

Soybean [22] = assay: pre-emergence herbicide test; conditions: Glycine max, pre-emergence, 0.25 lb/A; read-out: % plant inhibition
Experimental: as §1, §2, §3

Soybean [23] = assay: post-emergence herbicide test; conditions: Glycine max, post-emergence, 0.25 lb/A; read-out: % plant inhibition
Description: as §4

Giant Foxtail [24] = assay: post-emergence herbicide test; conditions: Setaria faberi, post-emergence, 0.25 lb/A; read-out: % plant inhibition
Description: as §4

Downy Brome [25] = assay: post-emergence herbicide test; conditions: Bromus tectorum, post-emergence, 0.25 lb/A; read-out: % plant inhibition
Description: as §4

Barnyardgrass [26] = assay: post-emergence herbicide test; conditions: Echinochloa crus-galli, post-emergence, 0.25 lb/A; read-out: % plant inhibition
Description: as §4

Rape [27] = assay: post-emergence herbicide test; conditions: post-emergence, 0.25 lb/A; read-out: % plant inhibition
Description: as §4

Blackgrass [28] = assay: post-emergence herbicide test; conditions: Alopecurus myosuroides, post-emergence, 0.25 lb/A; read-out: % plant inhibition
Description: as §4

Wheat [29] = assay: post-emergence herbicide test; conditions: Triticum aestivum, post-emergence, 0.25 lb/A; read-out: % plant inhibition
Description: as §4

Cocklebur [30] = assay: post-emergence herbicide test; conditions: Xanthium strumarium, post-emergence, 0.25 lb/A; read-out: % plant inhibition
Description: as §4

Morning Glory [31] = assay: post-emergence herbicide test; conditions: Ipomoea, post-emergence, 0.25 lb/A; read-out: % plant inhibition
Description: as §4

Wild Oats [32] = assay: post-emergence herbicide test; conditions: Avena fatua, post-emergence, 0.25 lb/A; read-out: % plant inhibition
Description: as §4

Green Foxtail [33] = assay: post-emergence herbicide test; conditions: Setaria viridis, post-emergence, 0.25 lb/A; read-out: % plant inhibition
Description: as §4

Common Chickweed [34] = assay: post-emergence herbicide test; conditions: post-emergence, 0.25 lb/A; read-out: % plant inhibition
Description: as §4

SMILES: Cc1c(-c2cc(C(=O)OC(C)C)c(Cl)cc2F)nn(C)c1C(F)(F)F [Compound 8, 2-Chloro-5-[1,4-dimethyl-5-(trifluoromethyl)-1H-pyrazol-3-yl]-4-fluorobenzoic acid, 1-methylethyl ester]
- inhibition at 280.212 g/ha (Giant Foxtail [1]): 100%
- % plant inhibition (Corn [2]): 85% and 90% and 70% and 100%
- % plant inhibition (Downy Brome [3]): 99%
- inhibition at 280.212 g/ha (Downy Brome [3]): 100%
- inhibition at 280.212 g/ha (Birdseye Speedwell [4]): 100%
- inhibition at 280.212 g/ha (Barnyardgrass [5]): 100%
- % plant inhibition (Rape [6]): 100% and 90%
- inhibition at 280.212 g/ha (Rape [6]): 98%
- inhibition at 280.212 g/ha (Seedling Johnsongrass [7]): 100%
- % plant inhibition (Velvetleaf [8]): 100%
- inhibition at 280.212 g/ha (Velvetleaf [8]): 98%
- inhibition at 280.212 g/ha (Blackgrass [9]): 100%
- % plant inhibition (Wheat [10]): 0%
- % plant inhibition (Bedstraw Catchweed [11]): 100%
- inhibition at 280.212 g/ha (Bedstraw Catchweed [11]): 90%
- % plant inhibition (Cocklebur [12]): 80% and 75% and 99% and 85%
- % plant inhibition (Morning Glory [13]): 100%
- % plant inhibition (Wild Oats [14]): 100%
- inhibition at 280.212 g/ha (Wild Oats [14]): 95%
- inhibition at 280.212 g/ha (Green Foxtail [15]): 100%
- inhibition at 280.212 g/ha (Common Chickweed [16]): 100%
- % plant inhibition (Corn [17]): 20%
- inhibition at 280.212 g/ha (Corn [17]): 15%
- % plant inhibition (Birdseye Speedwell [18]): 55%
- % plant inhibition (Seedling Johnsongrass [19]): 90%
- inhibition at 280.212 g/ha (Seedling Johnsongrass [19]): 70%
- % plant inhibition (Velvetleaf [20]): 99%
- inhibition at 280.212 g/ha (Velvetleaf [20]): 90%
- % plant inhibition (Bedstraw Catchweed [21]): 60% and 95%

SMILES: CCOC(=O)C(C)OC(=O)c1cc(-c2nn(C)c(C(F)(F)F)c2C)c(F)cc1Cl (stereo not shown) [Compound 20]
- inhibition at 280.212 g/ha (Soybean [22]): 5%
- % plant inhibition (Giant Foxtail [1]): 80%
- inhibition at 280.212 g/ha (Giant Foxtail [1]): 98%
- % plant inhibition (Corn [2]): 10%
- inhibition at 280.212 g/ha (Corn [2]; Zea mays, pre-emergence, read-out: % plant inhibition): 15%
- inhibition at 280.212 g/ha (Downy Brome [3]): 65%
- inhibition at 280.212 g/ha (Birdseye Speedwell [4]): 100%
- inhibition at 280.212 g/ha (Rape [6]): 95%
- inhibition at 280.212 g/ha (Velvetleaf [8]): 95%
- inhibition at 280.212 g/ha (Blackgrass [9]): 70%
- inhibition at 280.212 g/ha (Wheat [10]; Triticum aestivum, pre-emergence, read-out: % plant inhibition): 0%
- inhibition at 280.212 g/ha (Bedstraw Catchweed [11]): 100%
- inhibition at 280.212 g/ha (Cocklebur [12]; Xanthium strumarium, pre-emergence, read-out: % plant inhibition): 55%
- % plant inhibition (Morning Glory [13]): 70%
- inhibition at 280.212 g/ha (Morning Glory [13]; Ipomoea, pre-emergence, read-out: % plant inhibition): 85%
- inhibition at 280.212 g/ha (Wild Oats [14]): 25%
- inhibition at 280.212 g/ha (Green Foxtail [15]): 100%
- inhibition at 280.212 g/ha (Common Chickweed [16]): 100%
- inhibition at 280.212 g/ha (Soybean [23]): 35%
- inhibition at 280.212 g/ha (Giant Foxtail [24]): 75%
- inhibition at 280.212 g/ha (Corn [17]): 8%
- inhibition at 280.212 g/ha (Downy Brome [25]): 40%
- inhibition at 280.212 g/ha (Birdseye Speedwell [18]; post-emergence, read-out: % plant inhibition): 100%
- inhibition at 280.212 g/ha (Barnyardgrass [26]): 85%
- inhibition at 280.212 g/ha (Rape [27]): 25%
- inhibition at 280.212 g/ha (Seedling Johnsongrass [19]): 80%
- inhibition at 280.212 g/ha (Velvetleaf [20]): 100%
- inhibition at 280.212 g/ha (Blackgrass [28]): 35%
- inhibition at 280.212 g/ha (Wheat [29]): 22%
- inhibition at 280.212 g/ha (Bedstraw Catchweed [21]; Galium aparine, post-emergence, read-out: % plant inhibition): 95%
- inhibition at 280.212 g/ha (Cocklebur [30]): 90%
- inhibition at 280.212 g/ha (Morning Glory [31]): 98%
- inhibition at 280.212 g/ha (Wild Oats [32]): 45%
- inhibition at 280.212 g/ha (Green Foxtail [33]): 25%
- inhibition at 280.212 g/ha (Common Chickweed [34]): 98%
